{
  "source": "patent US9695155B2",
  "about": "“Herbicidal substituted pyrimidinyloxy benzene compounds” (E. I. DU PONT DE NEMOURS AND COMPANY, priority 2013, dated 2017)",
  "key": {"[1]": {"tested_on": "large (Lg) crabgrass", "test": "Test A preemergence", "format": "in vivo, Digitaria sanguinalis", "how_it_was_run": "(§1)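 Visual 0–100 rating (100 = complete control) taken about 10 d post-treatment relative to untreated checks. Preemergence: directed soil spray on sown loam/sand pots. Postemergence: seedlings 2–10 cm, 1–2 leaf. Non-phytotoxic solvent formulation with surfactant.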"}, "[2]": {"tested_on": "velvetleaf", "test": "Test A preemergence", "format": "in vivo, Abutilon theophrasti", "how_it_was_run": "as §1"}, "[3]": {"tested_on": "wheat", "test": "Test A preemergence", "format": "in vivo, Triticum aestivum", "how_it_was_run": "as §1"}, "[4]": {"tested_on": "large (Lg) crabgrass", "test": "Test A postemergence", "format": "in vivo, Digitaria sanguinalis", "settings": "0 to 100 scale where 0 is no effect and 100 is complete control", "how_it_was_run": "as §1"}, "[5]": {"tested_on": "giant foxtail", "test": "Test A postemergence", "format": "in vivo, Setaria faberii", "settings": "0 to 100 scale where 0 is no effect and 100 is complete control", "how_it_was_run": "as §1"}, "[6]": {"tested_on": "velvetleaf", "test": "Test A postemergence", "format": "in vivo, Abutilon theophrasti", "settings": "0 to 100 scale where 0 is no effect and 100 is complete control", "how_it_was_run": "as §1"}, "[7]": {"tested_on": "wheat", "test": "Test A postemergence", "format": "in vivo, Triticum aestivum", "settings": "0 to 100 scale where 0 is no effect and 100 is complete control", "how_it_was_run": "as §1"}, "[8]": {"tested_on": "rice", "test": "Test B flooded paddy test", "format": "in vivo, Oryza sativa", "settings": "Flood, 250 g ai/ha; 0 to 100 scale where 0 is no effect and 100 is complete control", "how_it_was_run": "(§2)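 Plants were grown to the 2-leaf stage, then pots were flooded to 3 cm above the soil and compounds were applied directly into the paddy water. That depth was held throughout, and after 13 to 15 days in the greenhouse injury was rated visually against controls on a 0–100 scale (0 no effect, 100 complete control).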"}, "[9]": {"tested_on": "Heteranthera limosa", "test": "Test B flooded paddy test", "format": "in vivo", "settings": "Flood, 250 g ai/ha; 0 to 100 scale where 0 is no effect and 100 is complete control", "how_it_was_run": "as §2"}, "[10]": {"tested_on": "lambsquarters", "test": "Test C postemergence", "format": "in vivo, Chenopodium album", "how_it_was_run": "(§3)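 Preemergence: seeds sown in a loam soil–sand blend and sprayed with test chemical in a non-phytotoxic solvent mixture containing surfactant. Postemergence: plants at 2 to 18 cm (1- to 4-leaf stage) in peat-based medium, treated with the same formulation. Greenhouse 13 to 15 days, then visual rating 0 (no effect) to 100 (complete control).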"}, "[11]": {"tested_on": "morningglory", "test": "Test C postemergence", "format": "in vivo, Ipomoea coccinea", "how_it_was_run": "as §3"}, "[12]": {"tested_on": "pigweed", "test": "Test C postemergence", "format": "in vivo, Amaranthus retroflexus", "how_it_was_run": "as §3"}, "[13]": {"tested_on": "soybean", "test": "Test C postemergence", "format": "in vivo, Glycine max", "how_it_was_run": "as §3"}, "[14]": {"tested_on": "oilseed rape", "test": "Test C postemergence", "format": "in vivo, Brassica napus", "how_it_was_run": "as §3"}, "[15]": {"tested_on": "kochia", "test": "Test C postemergence", "format": "in vivo, Kochia scoparia", "how_it_was_run": "as §3"}, "[16]": {"tested_on": "velvetleaf", "test": "Test C postemergence", "format": "in vivo, Abutilon theophrasti", "how_it_was_run": "as §3"}, "[17]": {"settings": "500 g ai/ha, 0 to 100 scale where 0 is no effect and 100 is complete control"}, "[18]": {"settings": "16 g ai/ha, postemergence, 0 is no effect, 100 is complete control"}, "[19]": {"settings": "31 g ai/ha, postemergence, visual rating, scale 0 to 100 (0 no effect, 100 complete control), 13 to 15 days"}, "[20]": {"settings": "125 g ai/ha, postemergence, visual rating, scale 0 to 100 (0 no effect, 100 complete control)"}, "[21]": {"settings": "Postemergence, 62 g ai/ha, scale 0 to 100 (0 no effect, 100 complete control)"}},
  "data": [
    {"smiles": "Cc1cnc(Oc2cccc(C#N)c2-n2cc(C(F)(F)F)cn2)nc1", "note": "[Compound 180]", "values": [
      {"measurement": "Crabgrass, Large plant response rating (0 to 100 scale)", "setting": "[1]; 125 g ai/ha", "value": 100},
      {"measurement": "Crabgrass, Large plant response rating", "setting": "[1]; [17]", "value": 100},
      {"measurement": "Velvetleaf plant response rating (0 to 100 scale)", "setting": "[2]; 125 g ai/ha", "value": 100},
      {"measurement": "Velvetleaf plant response rating", "setting": "[2]; [17]", "value": 100},
      {"measurement": "Wheat plant response rating (0 to 100 scale)", "setting": "[3]; 125 g ai/ha", "value": 20},
      {"measurement": "Wheat plant response rating", "setting": "[3]; [17]", "value": 80},
      {"measurement": "Crabgrass, Large plant response rating", "setting": "[4]; 125 g ai/ha", "value": 90},
      {"measurement": "Plant response rating, Crabgrass, Large", "setting": "[4]; 500 g ai/ha", "value": 90},
      {"measurement": "Foxtail, Giant plant response rating", "setting": "[5]; 125 g ai/ha", "value": 90},
      {"measurement": "Plant response rating, Foxtail, Giant", "setting": "[5]; 500 g ai/ha", "value": 90},
      {"measurement": "Velvetleaf plant response rating", "setting": "[6]; 125 g ai/ha", "value": 100},
      {"measurement": "Plant response rating, Velvetleaf", "setting": "[6]; 500 g ai/ha", "value": 100},
      {"measurement": "Wheat plant response rating", "setting": "[7]; 125 g ai/ha", "value": 40},
      {"measurement": "Plant response rating, Wheat", "setting": "[7]; 500 g ai/ha", "value": 80},
      {"measurement": "Plant response rating, Rice", "setting": "[8]", "value": 40},
      {"measurement": "Plant response rating, Ducksalad", "setting": "[9]", "value": 80},
      {"measurement": "Plant response rating (0 to 100), Lambsquarters", "setting": "[10]; [18]", "value": 35},
      {"measurement": "Lambsquarters plant response rating", "setting": "[10]; [19]", "value": 55},
      {"measurement": "Plant response rating, Lambsquarters", "setting": "[10]; [20]", "value": 85},
      {"measurement": "Plant response rating, Lambsquarters", "setting": "[10]; [21]", "value": 75},
      {"measurement": "Plant response rating (0 to 100), Morningglory", "setting": "[11]; [18]", "value": 45},
      {"measurement": "Morningglory plant response rating", "setting": "[11]; [19]", "value": 65},
      {"measurement": "Plant response rating, Morningglory", "setting": "[11]; [20]", "value": 90},
      {"measurement": "Plant response rating, Morningglory", "setting": "[11]; [21]", "value": 75},
      {"measurement": "Plant response rating (0 to 100), Pigweed", "setting": "[12]; [18]", "value": 10},
      {"measurement": "Pigweed plant response rating", "setting": "[12]; [19]", "value": 55},
      {"measurement": "Plant response rating, Pigweed", "setting": "[12]; [20]", "value": 70},
      {"measurement": "Plant response rating, Pigweed", "setting": "[12]; [21]", "value": 60},
      {"measurement": "Plant response rating (0 to 100), Soybean", "setting": "[13]; [18]", "value": 85},
      {"measurement": "Soybean plant response rating", "setting": "[13]; [19]", "value": 85},
      {"measurement": "Plant response rating, Soybean", "setting": "[13]; [20]", "value": 95},
      {"measurement": "Plant response rating, Soybean", "setting": "[13]; [21]", "value": 98},
      {"measurement": "Plant response rating (0 to 100), Oilseed Rape", "setting": "[14]; [18]", "value": 15},
      {"measurement": "Oilseed Rape plant response rating", "setting": "[14]; [19]", "value": 25},
      {"measurement": "Plant response rating, Oilseed Rape", "setting": "[14]; [20]", "value": 55},
      {"measurement": "Plant response rating, Oilseed Rape", "setting": "[14]; [21]", "value": 40},
      {"measurement": "Plant response rating (0 to 100), Kochia", "setting": "[15]; [18]", "value": 40},
      {"measurement": "Kochia plant response rating", "setting": "[15]; [19]", "value": 50},
      {"measurement": "Plant response rating, Kochia", "setting": "[15]; [20]", "value": 60},
      {"measurement": "Plant response rating, Kochia", "setting": "[15]; [21]", "value": 50},
      {"measurement": "Plant response rating (0 to 100), Velvetleaf", "setting": "[16]; [18]", "value": 30},
      {"measurement": "Velvetleaf plant response rating", "setting": "[16]; [19]", "value": 40},
      {"measurement": "Plant response rating, Velvetleaf", "setting": "[16]; [20]", "value": 85},
      {"measurement": "Plant response rating, Velvetleaf", "setting": "[16]; [21]", "value": 65}
    ]}
  ]
}
